{"source": "ChEMBL document CHEMBL1141952", "about": "“Conformationally restricted analogs of Combretastatin A-4 derived from SU5416” (Bioorg Med Chem Lett, 2005)", "key": {"[1]": {"system": "MCF7", "assay": "Antiproliferative activity against estrogen-dependent breast cancer MCF7 cell line by MTS assay", "assay_type": "functional, cell-based", "settings": "Homo sapiens"}, "[2]": {"system": "PC-3", "assay": "Antiproliferative activity against androgen-independent prostate cancer PC3 cell line by MTS assay", "assay_type": "functional, cell-based", "settings": "Homo sapiens"}, "[3]": {"system": "MDA-MB-231", "assay": "Antiproliferative activity against estrogen-independent breast cancer MDA-MB-231 cell line by MTS assay", "assay_type": "functional, cell-based", "settings": "Homo sapiens"}, "[4]": {"biological_target": "Tubulin (Sus scrofa, UniProt P02554+P02550)", "assay": "Inhibition of porcine brain tubulin polymerization by GTP-induced assembly"}}}
{"smiles": "O=C1Nc2ccccc2/C1=C\\c1cccc(O)c1", "values": [{"measurement": "IC50", "setting": "[1]", "result": 31.4, "unit": "µM"}, {"measurement": "IC50", "setting": "[2]", "result": "> 50", "unit": "µM"}, {"measurement": "IC50", "setting": "[3]", "result": 16.9, "unit": "µM"}, {"measurement": "IC50", "setting": "[4]", "result": "> 40", "unit": "µM"}]}
{"smiles": "COc1cc([C@@H]2c3cc4c(cc3[C@H](O)[C@H]3COC(=O)[C@H]23)OCO4)cc(OC)c1OC", "note": "[PODOFILOX]", "values": [{"measurement": "IC50", "setting": "[2]", "result": 0.013, "unit": "µM"}, {"measurement": "IC50", "setting": "[3]", "result": 0.008, "unit": "µM"}]}
{"smiles": "O=C1Nc2ccccc2/C1=C\\c1ccc(O)cc1", "values": [{"measurement": "IC50", "setting": "[1]", "result": 25.7, "unit": "µM"}, {"measurement": "IC50", "setting": "[2]", "result": "> 50", "unit": "µM"}, {"measurement": "IC50", "setting": "[3]", "result": 17.5, "unit": "µM"}, {"measurement": "IC50", "setting": "[4]", "result": "> 40", "unit": "µM"}]}
{"smiles": "O=C1Nc2cc(O)ccc2/C1=C\\c1cccc(O)c1", "values": [{"measurement": "IC50", "setting": "[1]", "result": 8.6, "unit": "µM"}, {"measurement": "IC50", "setting": "[2]", "result": 19.5, "unit": "µM"}, {"measurement": "IC50", "setting": "[3]", "result": 4.3, "unit": "µM"}, {"measurement": "IC50", "setting": "[4]", "result": "> 40", "unit": "µM"}]}
{"smiles": "O=C1Nc2cc(O)ccc2/C1=C\\c1ccc(O)cc1", "values": [{"measurement": "IC50", "setting": "[1]", "result": 19.7, "unit": "µM"}, {"measurement": "IC50", "setting": "[2]", "result": 44.7, "unit": "µM"}, {"measurement": "IC50", "setting": "[3]", "result": 9.4, "unit": "µM"}, {"measurement": "IC50", "setting": "[4]", "result": "> 40", "unit": "µM"}]}
{"smiles": "COc1ccc2c(c1)NC(=O)/C2=C/c1cccc(O)c1", "values": [{"measurement": "IC50", "setting": "[1]", "result": 0.39, "unit": "µM"}, {"measurement": "IC50", "setting": "[2]", "result": 0.54, "unit": "µM"}, {"measurement": "IC50", "setting": "[3]", "result": 1.4, "unit": "µM"}, {"measurement": "IC50", "setting": "[4]", "result": 9.1, "unit": "µM"}]}
{"smiles": "COc1ccc2c(c1)NC(=O)/C2=C/c1cc(OC)c(OC)c(OC)c1", "values": [{"measurement": "IC50", "setting": "[1]", "result": 0.0007, "unit": "µM"}, {"measurement": "IC50", "setting": "[2]", "result": 0.0082, "unit": "µM"}, {"measurement": "IC50", "setting": "[3]", "result": 0.0009, "unit": "µM"}, {"measurement": "IC50", "setting": "[4]", "result": 4.5, "unit": "µM"}]}
{"smiles": "COc1ccc2c(c1)NC(=O)/C2=C/c1ccc(O)cc1", "values": [{"measurement": "IC50", "setting": "[1]", "result": 0.23, "unit": "µM"}, {"measurement": "IC50", "setting": "[2]", "result": 0.64, "unit": "µM"}, {"measurement": "IC50", "setting": "[3]", "result": 2.6, "unit": "µM"}, {"measurement": "IC50", "setting": "[4]", "result": 18, "unit": "µM"}]}
